How the values were obtained:
[1] = tested on: inducible form of nitric oxide synthase; experiment: Inhibition of nitric oxide synthesis by nitric oxide synthase (inducible form) from cytokine-treated rat aortic smooth muscle cells; type: biochemical, adult male Fischer 344 rats
Protocol: Reaction mixtures were made up containing 50 μL of a working solution, 10 μL myoglobin solution (3 mg/ml), 10 μL inhibitor, 20 μL nitric oxide synthase and 10 μL water.
The working mixture was made up to contain 160 mM tris buffer, 200 μM L-arginine, 1 mM NADPH, 20 μM flavin adenine dinucleotide, 20 μM tetrahydrobiopterin in distilled water (pH adjusted to 7.6 by adding 10N NaOH).
The nitric oxide synthase was obtained as follows: Aortic smooth muscle cells were cultured by explanting segments of the medial layer of aortae from adult male Fischer 344 rats. Aortae were removed aseptically and freed of adventitial and endothelial cells by scraping both the lumenal and abluminal surfaces. Medial fragments (1-2 mm) were allowed to attach to dry Primaria 25 cm^2 tissue culture flasks (Falcon; Oxnard, Calif.) which were kept moist with growth medium until cells emerged. Cultures were fed twice weekly with medium 199 containing 10% fetal bovine serum, 25 mM HEPES, 2 mM L-glutamine, 40 μg/ml endothelial cell growth supplement (Biomedical Technologies; Stoughton, Mass.) and 10 μg/ml gentamycin (GIBCO; Grand Island, N.Y.). When primary cultures became confluent, they were passaged by trypsinization. Cells in passage 10-15 were seeded at 20,000/well. […]

pressor response = type: in vivo, rat; settings: phenylephrine 0.1 to 10 μg/kg, angiotensin II 0.01 to 1 μg/kg
Protocol: To establish that nitric oxide overproduction can result in a diminished sensitivity to pressor agents, studies in a rat model of septic hypotension, i.e., the endotoxic-, pithed-rat, are performed.
Animals are either untreated (control) or treated with endotoxin (lipopolysaccharide-treated; 15 mg/kg, i.p.) 6 hours prior to their being pithed and instrumented for blood pressure recording. Prior to pithing, mean systematic arterial pressure in control rats is about 120 mm Hg. Pressure falls about 50% after pithing of control animals and is reduced to about 25% of normal in pithed endotoxin-treated animals.
Responsiveness is restored to more than 50% of the responsiveness seen in pithed control rats.

Row | Compound | effectiveness relative to the commercial compound (N^ω -methyl-DL-arginine), based on the concentration necessary to inhibit 50% [1] | pressor effect in pithed control rats (pressor response) | pressor effect in pithed endotoxic rats (pressor response)
1 | CC(N)(CCCNC(=N)NN)C(=O)O (racemic) [α-methyl-N^ω -amino-DL-arginine, α-Methyl-N^ω -Amino-DL-Arginine] | about twice as effective as the commercial compound | – | –
2 | CNC[C@H](O)c1cccc(O)c1 [phenylephrine] | – | strong pressor effect | negligible effect
3 | angiotensin II: listed among suitable α1 -adrenergic agonists; pressor agent (DRVYIHPF; Angiotensin-2; UniProt P01019 25-32, looked up) | – | strong pressor effect | negligible effect
